Assay results reported in patent publication US11109593B2, “Isoxazolin-5-one derivative and herbicide containing same as active ingredient” (HOKKO CHEMICAL INDUSTRY CO., LTD., priority 2017, dated 2021).

Assays:
Assay type in all cases: in vivo
Scirpus juncoides [1] = test: Test Example 1: herbicidal effect test by treatment of rice paddy soil (immediately after seeding); details: 120 g/10a active ingredient, dry weight vs untreated area, 14 days after treatment
Summary of the method: (§1)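 Application occurs immediately after seeding, with diluted emulsion added to paddy water (about 3 cm deep) over puddled, fertilized soil at 120 g active ingredient per 10 ares. Herbicidal rate is calculated from mean dry weight against untreated controls 14 days later.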

Echinochloa crus-galli [2] = test: as above; details: 120 g/10a active ingredient, dry weight vs untreated area, 14 days after treatment
Summary of the method: as §1

[3] = system: broad leaf weeds (Lindernia pyxidaria and Monochoria vaginalis); test: as above; details: 120 g/10a active ingredient, dry weight vs untreated area, 14 days after treatment
Summary of the method: as §1

Chenopodium album [4] = test: Test Example 3: herbicidal effect test by treatment of dry field farming soil (one day after seeding); details: 120 g/10a active ingredient, evaluated 14 days after treatment
Summary of the method: (§2)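 Compound emulsions are sprayed on the soil surface one day after sowing (120 g a.i. per 10 ares) before weeds emerge. Effect is expressed as percent dry-weight reduction versus untreated controls 14 days post-treatment.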

southern crabgrass [5] = test: as above; details: 120 g/10a active ingredient, evaluated 14 days after treatment
Summary of the method: as §2

Echinochloa crus-galli [6] = test: as above; details: 120 g/10a active ingredient, evaluated 14 days after treatment
Summary of the method: as §2

Amaranthus viridis [7] = test: as above; details: 120 g/10a active ingredient, evaluated 14 days after treatment
Summary of the method: as §2

Scirpus juncoides [8] = test: Test Example 2: herbicidal effect test by treatment during growing period in paddy rice cultivation (seven days after seeding); details: 120 g/10a active ingredient, assessed 14 days after treatment, dry weight vs untreated area
Summary of the method: (§3)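 Greenhouse flooded-pot test, seeds sown in puddled paddy soil; emulsion applied into water 7 d after seeding, 120 g a.i./10 a. Dry-weight-based herbicidal rate at 14 d, n=2.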

Echinochloa crus-galli [9] = test: as above; details: 120 g/10a active ingredient, assessed 14 days after treatment, dry weight vs untreated area
Summary of the method: as §3

[10] = system: broad leaf weeds (Lindernia pyxidaria and Monochoria vaginalis); test: as above; details: 120 g/10a active ingredient, assessed 14 days after treatment, dry weight vs untreated area
Summary of the method: as §3

Chenopodium album [11] = test: Test Example 4: herbicidal effect test by treatment of leave and stem in dry field farming (seven days after seeding); details: 120 g/10a active ingredient; emulsion sprayed seven days after seeding; evaluated 14 days after treatment
Summary of the method: (§4)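 Duplicate pots were scored 14 days post-spray by dry weight, herbicidal rate = {1 − treated/untreated average dry weight} × 100. The water-diluted emulsion, equivalent to 120 g active ingredient per 10 ares in 100 L, was applied seven days after sowing 20 seeds each into the upper 1 cm of alluvial soil.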

southern crabgrass [12] = test: as above; details: 120 g/10a active ingredient; emulsion sprayed seven days after seeding; evaluated 14 days after treatment
Summary of the method: as §4

Echinochloa crus-galli [13] = test: as above; details: 120 g/10a active ingredient; emulsion sprayed seven days after seeding; evaluated 14 days after treatment
Summary of the method: as §4

Amaranthus viridis [14] = test: as above; details: 120 g/10a active ingredient; emulsion sprayed seven days after seeding; evaluated 14 days after treatment
Summary of the method: as §4

| SMILES | Herbicidal rate (%) Scirpus juncoides (Scirpus juncoides [1]) | Herbicidal rate (%) Echinochloa crus-galli (Echinochloa crus-galli [2]) | Herbicidal rate (%) Lindernia pyxidaria [3] | Herbicidal rate (%) Monochoria vaginalis [3] | herbicidal rate, Chenopodium album (Chenopodium album [4]) | herbicidal rate, southern crabgrass (southern crabgrass [5]) | herbicidal rate, Echinochloa crus-galli (Echinochloa crus-galli [6]) | herbicidal rate, Amaranthus viridis (Amaranthus viridis [7]) | Herbicidal rate (%) Scirpus juncoides (Scirpus juncoides [8]) | Herbicidal rate (%) Echinochloa crus-galli (Echinochloa crus-galli [9]) | Herbicidal rate (%) Lindernia pyxidaria [10] | Herbicidal rate (%) Monochoria vaginalis [10] | herbicidal effect (herbicidal rate), Chenopodium album (Chenopodium album [11]) | herbicidal effect (herbicidal rate), southern crabgrass (southern crabgrass [12]) | herbicidal effect (herbicidal rate), Echinochloa crus-galli (Echinochloa crus-galli [13]) | herbicidal effect (herbicidal rate), Amaranthus viridis (Amaranthus viridis [14]) |
| --- | --- | --- | --- | --- | --- | --- | --- | --- | --- | --- | --- | --- | --- | --- | --- | --- |
| CCC(C)Cn1oc(=O)c(Cc2ccccc2NS(=O)(=O)C(F)(F)F)c1C (centres unmarked) [Compound 1-112] | 90% | 100% | 90% | 90% | 80% | 90% | 90% | 60% | 90% | 90% | 80% | 80% | 0% | 50% | 90% | 40% |
| CSCCn1oc(=O)c(Cc2ccccc2N(C(=O)C(C)C)S(=O)(=O)C(F)(F)F)c1C [Compound 1-336] | 90% | 90% | 90% | 90% | 90% | 90% | 90% | 90% | 90% | 90% | 90% | 90% | 40% | 90% | 90% | 40% |
| COCC(C)n1oc(=O)c(Cc2ccccc2N(C(=O)CC(C)C)S(=O)(=O)C(F)(F)F)c1C (centres unmarked) [Compound 1-357] | 90% | 90% | 90% | 90% | 90% | 90% | 90% | 90% | 90% | 90% | 90% | 90% | 40% | 90% | 90% | 40% |
| CC(=O)N(c1ccccc1Cc1c(C)n(C(C)c2ccccc2)oc1=O)S(=O)(=O)C(F)(F)F (centres unmarked) [Compound 1-310] | 90% | 90% | 90% | 90% | 90% | 90% | 90% | 90% | 90% | 90% | 90% | 90% | 40% | 90% | 90% | 40% |
| CCC(=O)N(c1ccccc1Cc1c(C)n(C(C)(C)C)oc1=O)S(=O)(=O)C(F)(F)F [Compound 1-315] | 90% | 90% | 90% | 90% | 90% | 90% | 90% | 90% | 90% | 90% | 90% | 90% | 40% | 90% | 90% | 40% |
| COCCOC(=O)N(c1ccccc1Cc1c(C)n(CCSC)oc1=O)S(=O)(=O)C(F)(F)F [Compound 1-735] | 90% | 90% | 90% | 90% | 90% | 90% | 90% | 90% | 90% | 90% | 90% | 90% | 40% | 90% | 90% | 40% |
| Cc1c(Cc2ccccc2N(S(=O)(=O)C(F)(F)F)S(=O)(=O)C(F)(F)F)c(=O)on1C(C)Cc1ccccc1 (centres unmarked) [Compound 1-1045] | 90% | 100% | 90% | 80% | 40% | 50% | 90% | 40% | 90% | 90% | 60% | 90% | 0% | 40% | 90% | 60% |
| CCC(C)n1oc(=O)c(Cc2ccccc2N(C(=O)Oc2ccccc2)S(=O)(=O)C(F)(F)F)c1C (centres unmarked) [Compound 1-763] | 90% | 90% | 90% | 90% | 90% | 90% | 90% | 90% | 90% | 90% | 90% | 90% | 40% | 90% | 90% | 40% |
